Drawing on a melting point compilation (Tetko et al.), this text covers melting point for 79 compounds.

Each structure is given as a SMILES string.

In general, melting point refers to the temperature, or range, at which the solid turns liquid. `CN(C)c1ccc(N=C2C=CC(=O)C=C2)cc1` had a melting point of 134 °C.
The same measure for `COc1ccc(NC(N)=S)c(OC)c1`: 199 to 201 °C; for `O=Cc1c(-c2ccc(Cl)cc2)[nH]c2ccccc12`: 257 to 258 °C; for `Cc1ccc2sc(C(=O)Cl)cc2c1`: 58 to 60 °C.
The same measure for `N#CC(c1ccccc1)N1CCOCC1` (centres undefined): 69 to 71 °C; for `N#Cc1ccc2sccc2c1`: 69 to 71 °C; for `COc1cc(OC)c(C)c(OC)c1`: 28 °C.
As for `O=c1c2c(oc3c1CCCC3)CCCC2`, the figure is 130 °C; as for `O=C1NN(c2ccccc2)C(=O)C1=Cc1ccc(F)cc1`, 300 °C; as for `O=C(Nc1ccc(Cl)cc1)c1cc(Br)ccc1O`, 240 °C.
Regarding `Nc1c(F)cc(O)cc1F`, the melting point stood at 149 °C.
The same measure for `CCOC(=O)c1cc2cc3c4c(c2oc1=O)CCCN4CCC3`: 140 to 144 °C.
The same measure for `ON=C(Cl)c1ccc(Cl)cc1Cl`: 93 to 95 °C.
Consider `Cc1ccccc1NC(=O)c1ccccc1`, for which the melting point was determined as 146 °C.
The same measure for `Cc1c(COC(=O)C2C(C=C(Cl)C(F)(F)F)C2(C)C)cccc1-c1ccccc1` (centres undefined): 79.6 °C; for `O=C(O)c1ccccc1Nc1cccc(F)c1`: 158 to 163 °C.
For `CCC(C=C1C(=O)C2(C)CCC1C2(C)C)C(=O)O` (centres undefined), the melting point turned out to be 118 °C.
As for `CC(=O)c1ccc(F)c(Br)c1`, the figure is 56 °C; as for `CC#CCN1C(=O)c2ccccc2C1=O`, 221 °C.
The compound `COC(=O)c1ccc2[nH]cnc2c1` displayed a melting point of 139 to 143 °C.
As for `Nc1nc(O)nc(C23CC4CC(CC(C4)C2)C3)n1`, the figure is 340 °C.
The same measure for `CCOc1ccc(OC(=O)c2ccccc2)cc1`: 104 °C; for `CC(=O)OC1CCC2(C)C(CCC3C4=C(CCC32)C(C)(C#Cc2ccccc2)CC4)C1` (centres undefined): 135 to 136 °C.
The same measure for `Cc1noc(-c2ccccc2)c1N=C=O`: 79 to 81 °C.
As for `O=C(NCc1ccc(Cl)cc1)c1cc([N+](=O)[O-])cc([N+](=O)[O-])c1`, the melting point was 200 to 202 °C.
In the case of `CCCCCCCCCCN(CCCCCCCCCC)CCCCCCCCCC`, the melting point is -5 to -3 °C.
The same measure for `COc1cccc(C=Nn2c(C)cc(C)c(C#N)c2=O)c1O`: 209 to 212 °C; for `OCCC1CCNCC1`: 132 °C.
Turning to `COc1cccc(-c2ccc(C(=O)O)o2)c1`, the melting point lay within 169 to 170 °C.
As for `Cc1nn(Cc2cccc(C(=O)O)c2)c(C)c1Br`, the figure is 224 to 226 °C.
Compound `Oc1c(I)cc(I)c2cccnc12` gave a melting point of 210 °C.
In the case of `Cc1oc(-c2ccccc2)nc1C=O`, the melting point was in the range of 87 to 88 °C.
The same measure for `O=[N+]([O-])c1cc([N+](=O)[O-])cc(C(F)(F)F)c1`: 51 °C.
Compound `COC(=O)c1ccc(C(N)=NO)cc1` yielded a melting point of 167 to 168 °C.
The same measure for `CSc1nc2nc(C)cc(C)n2n1`: 156 to 157 °C.
`O=C(Nn1cnnc1)C(F)(F)C(F)(F)C(F)(F)C(F)(F)C(F)(F)C(F)(F)C(F)(F)C(F)(F)F`: the melting point was 151 °C.
Consider `Cc1oc(S(=O)(=O)N2CCOCC2)cc1C(=O)O`, for which the melting point lay in the range of 184 to 186 °C.
As for `COC(=O)c1c(C)cc(OC(=O)c2c(C)cc(O)c(C=O)c2O)c(C)c1O`, the figure is 195 °C; as for `CC(=C/C=N/NC(N)=O)C(C)(C)C`, 148 °C; as for `O=C(Cl)COc1ccc(Cl)cc1`, 19 °C.
The same measure for `Cc1cc(C)n2nc(N)c(/N=N/c3cc(Cl)c(Cl)cc3Cl)c2n1`: 295 °C; for `Cc1cccc(N2CC(CO)OC2=O)c1` (centres undefined): 76 °C.
Compound `O=C1C2(CCCCC2)C(=O)C12CCCCC2` returned a melting point of 166 °C.
As for `BrCc1ccc(-c2cccs2)cc1`, the figure is 83 to 84 °C; as for `CN1CCOc2cc(C#N)cnc21`, 107 to 109 °C; as for `Cn1cc(S(=O)(=O)Cl)c(C(F)(F)F)n1`, 34 to 36 °C.
The compound `CCCCCCCCCCCCCCN` registered a melting point of 83.1 °C.
The same measure for `NC(=S)NCCCN1CCOCC1`: 129 to 131 °C; for `COc1ccc(C2NCCc3sccc32)cc1` (centres undefined): 69 to 71 °C.
In turn, `BrCCCOc1ccc2cc3ccc(OCCCBr)cc3nc2c1` gave a melting point of 142 °C.
As for `C=C(C)C(N)=O`, the figure is 110 °C; as for `CSc1nc2ncc(C(=O)O)c(N)n2n1`, 278 to 281 °C; as for `N[C@@H](CCCCNC(=O)c1ccccc1)C(=O)O`, 251 to 256 °C.
`CN1CCN(C2=Nc3ccccc3Sc3ccc(Cl)cc32)CC1` had a melting point of 119 °C.
As for `CCCSc1ccccc1`, the figure is -45 °C; as for `Cc1c2c(c(C)c3c1CC3=O)C(=O)C2`, 188 °C; as for `Cn1c(=O)c(C2=NNC(=O)C2=NNc2nccs2)c(O)c2ccccc21`, 301 °C.
As for `O=C(O)C=Cc1c(Cl)cccc1Cl`, the figure is 192 to 196 °C; as for `Cc1ccc([N+](=O)[O-])c(Cl)c1`, 24 °C.
The same measure for `OCCN(CCO)c1nc(N2CCCCC2)c2nc(N(CCO)CCO)nc(N3CCCCC3)c2n1`: 163 °C; for `Nc1ncncn1`: 219 to 224 °C; for `O=C(CCC(O)c1ccccc1)c1ccccc1` (centres undefined): 95 °C.
`CC(=O)Oc1cccc(N=Nc2cccc(OC(C)=O)c2)c1` came in with a melting point of 144 °C.
With `Cc1ccc(-c2cc(C(=O)O)c(C)o2)cc1`, the melting point is 230 to 232 °C.
The same measure for `BrCc1ccc(-n2cccc2)cc1`: 86 to 91 °C; for `CCOC(=O)c1c(C)nsc1N`: 111 to 113 °C; for `CC1=C(C(N)=O)C(c2ccccc2)NC(=O)N1` (centres undefined): 260 to 262 °C.
As for `Fc1cccc(F)c1CCl`, the figure is 34 °C; as for `COc1cc(Cc2cnc(N)nc2N)cc(OC)c1Br`, 226 °C; as for `Cc1ccc(F)c(O)c1Cl`, 49 °C.
As for `CC1(C)CC(C(=O)Oc2ccc([N+](=O)[O-])cc2)C(C)(C)N1O` (centres undefined), the figure is 77 to 80 °C; as for `Cc1nc(-c2ccc(C(F)(F)F)cc2)sc1C(=O)Cl`, 85 to 86 °C.
Take `COC(=O)c1cccnc1N`: the melting point lay in the range of 84 to 86 °C.
As for `CC(C)OC(=O)Cc1csc(-c2ccc(Cl)cc2)n1`, the figure is 82 to 84 °C; as for `FC(F)(F)C1(F)C(F)(F)C(F)(F)C(F)(F)C(F)(C(F)(F)F)C1(F)F` (centres undefined), -55 °C.
`O=C(NC(CO)(Cc1ccccc1)C(=O)O)c1ccccc1` (racemic) showed a melting point of 160 to 162 °C.
The compound `COc1ccc(C(O)(c2ccc(OC)cc2)c2ccc(OC)cc2)cc1` showed a melting point of 79 °C.
The same measure for `N#C/C(=N/Nc1cccc2ccccc12)c1nc2ccccc2s1`: 254 °C; for `CC(=C(C#N)C#N)c1ccc(Cl)cc1`: 93 °C.
